Source: ChEMBL document CHEMBL1773013, “Malyngamide 3 and cocosamides A and B from the marine cyanobacterium Lyngbya majuscula from Cocos Lagoon, Guam” (J Nat Prod, 2011)

Key:
[1] = system: MCF7; test: Cytotoxicity against human MCF7 cells assessed as cell viability after 48 hrs by MTT assay; assay type: functional, cell-based; settings: MCF7, 48 h
[2] = system: HT-29; test: Cytotoxicity against human HT-29 cells assessed as cell viability after 48 hrs by MTT assay; assay type: functional, cell-based; settings: HT-29, 48 h

SMILES: C=CCCC[C@@H]1OC(=O)CNC(=O)[C@H](Cc2ccccc2)N(C)C(=O)[C@@H]2CCCN2C(=O)[C@H](Cc2ccccc2)N(C)C(=O)[C@H](C(C)C)NC(=O)C1(C)C [COCOSAMIDE A]
- IC50 [1]: 30 µM
- IC50 [2]: 24 µM

SMILES: C#CCCC[C@@H]1OC(=O)CNC(=O)[C@H](Cc2ccccc2)N(C)C(=O)[C@@H]2CCCN2C(=O)[C@H](Cc2ccccc2)N(C)C(=O)[C@H](C(C)C)NC(=O)C1(C)C [COCOSAMIDE B]
- IC50 [1]: 39 µM
- IC50 [2]: 11 µM

SMILES: CCCCCCC[C@@H](C/C=C/CCC(=O)N(C)C/C(=C\Cl)CC(=O)CC(=O)NC[C@H](O)CC(=O)OC)OC [MALYNGAMIDE 3]
- IC50 [1]: 29 µM
- IC50 [2]: 48 µM

SMILES: CC(=O)O[C@H]1C(=O)[C@@]2(C)[C@H]([C@H](OC(=O)c3ccccc3)[C@]3(O)C[C@H](OC(=O)[C@H](O)[C@@H](NC(=O)c4ccccc4)c4ccccc4)C(C)=C1C3(C)C)[C@]1(OC(C)=O)CO[C@@H]1C[C@@H]2O [PACLITAXEL]
- IC50 [1]: 0.006 µM
- IC50 [2]: 0.007 µM
